Results on two compounds are retold here after US20250170106A1, “USE OF SU3327 IN PREPARATION OF MEDICAMENT FOR ENHANCING EFFICACY OF POLYMYXIN AGAINST BACTERIAL INFECTION” (XIAMEN HANLIXIN PHARMACEUTICAL CO., LTD., priority 2022, published 2025).

For assay [1], the system named is Escherichia coli B2 (E. coli B2) containing MCR-1. Put plainly: MIC / checkerboard assay. The conditions noted are these: for MIC after use in combination: Polymyxin E + SU3327 in combination, checkerboard; for MIC: drug alone. It counts as cell-based. An excerpt: (§1) The strains used in the tests, the strain Escherichia coli ATCC 25922 (E. coli 25922) and the strain Staphylococcus aureus ATCC 29213 (S. aureus 29213), were purchased from China Veterinary Culture Collection Center. Methicillin Resistant Staphylococcus Aureus USA300 (ATCC BAA-1717) was purchased from American Type Culture Collection. The strains used in the other experiments, the strains Escherichia coli B2 (E. coli B2), Escherichia coli GZP08-8 (E. coli GZP08-8), Klebsiella pneumoniae 1202 (K. pneumoniae 1202), Klebsiella pneumoniae 1202-45-5 (K. pneumoniae 1202-45-5), Salmonella 1-5 (Salmonella 1-5), and Shigella Y (Shigella Y) were all from National Center for Veterinary Drug Safety Evaluation of China Agricultural University, with Escherichia coli B2 (E. coli B2), Escherichia coli GZP08-8 (E. coli GZP08-8), Klebsiella pneumoniae 1202-45-5 (K. pneumoniae 1202-45-5), and Salmonella 1-5 (Salmonella 1-5) as polymyxin resistant strains containing MCR-1. Klebsiella pneumoniae 1202 (K. pneumoniae 1202) and Shigella Y (Shigella Y) were strains clinically sensitive to colistin.
(§2) The MIC of SU3327 administered alone was detected with dilution by factors. Subsequently, tests were performed with SU3327 alone, Polymyxin E (Colistin) alone, and in combination, respectively, in sterile, 96-well microplates according to checkerboard assays for the joint inhibitory activities against the above-mentioned strains, and further Fractional Inhibitory Concentration Index (FICI) was calculated. FICI of SU3327 and Polymyxin E=MIC (Polymyxin E in combination)/MIC (Polymyxin E)+MIC (SU3327 in combination)/MIC (SU3327 alone). If FICI≤0.5, synergy was identified; if 0.5<FICI≤1, an additive effect was identified; and if […], an irrelevant effect was identified.

For assay [2], the system named is Escherichia coli GZP08-8 (E. coli GZP08-8). Put plainly: MIC / checkerboard assay. The conditions noted are these: for MIC after use in combination: Polymyxin E + SU3327 in combination, checkerboard; for MIC: drug alone. It counts as cell-based.
Text: as §1, §2

For assay [3], the system named is Escherichia coli strain ATCC 25922 (E. coli 25922). Put plainly: MIC / checkerboard assay. It is filed as cell-based. The conditions noted are these: for MIC after use in combination: Polymyxin E + SU3327 in combination, checkerboard; for MIC: drug alone.
Text: as §1, §2

Assay [4] concerns Klebsiella pneumoniae 1202 (K. pneumoniae 1202). Put plainly: MIC / checkerboard assay. It is filed as cell-based. The conditions noted are these: for MIC after use in combination: Polymyxin E + SU3327 in combination, checkerboard; for MIC: drug alone.
Text: as §1, §2

The subject of assay [5] is Klebsiella pneumoniae 1202-45-5 (K. pneumoniae 1202-45-5). Put plainly: MIC / checkerboard assay. It is filed as cell-based. Particulars: for MIC after use in combination: Polymyxin E + SU3327 in combination, checkerboard; for MIC: drug alone.
Text: as §1, §2

A further assay concerns Salmonella 1-5. Put plainly: MIC / checkerboard assay. The conditions noted are these: for MIC after use in combination: Polymyxin E + SU3327 in combination, checkerboard. It counts as cell-based.
Text: as §1, §2

For another assay, the system named is Shigella Y. Put plainly: MIC / checkerboard assay. The conditions noted are these: for MIC after use in combination: Polymyxin E + SU3327 in combination, checkerboard. It counts as cell-based.
Text: as §1, §2

Assay [6] relates to Staphylococcus Aureus USA300 (S. aureus USA300). Put plainly: MIC / checkerboard assay. Particulars: for MIC after use in combination: Polymyxin E + SU3327 in combination, checkerboard; for MIC: drug alone. It is filed as cell-based.
Text: as §1, §2

Assay [7] deals with Staphylococcus aureus strain ATCC 29213 (S. aureus 29213). Put plainly: MIC / checkerboard assay. It counts as cell-based. Particulars: for MIC after use in combination: Polymyxin E + SU3327 in combination, checkerboard; for MIC: drug alone.
Text: as §1, §2

Assay [8] relates to K. pneumoniae 1202-45-5. Put plainly: In vitro bacterial growth (bactericidal) curve. It counts as cell-based, Klebsiella pneumoniae. Particulars: continuous treatment for 24 h, Polymyxin E 1 μg/mL, SU3327 20 μg/mL, alone or combined. The method, then: (§3) 6.0 g powdered beef extract, 1.5 g soluble starch, 17.5 g acid hydrolysate of casein, and 17.0 g agar were weighed, to which 900 mL distilled water was added, with the pH adjusted to 7.3, and the volume to 1000 mL. The mixture was subject to autoclave at 121° C. for 15 minutes, and then cooled to 50° C., poured into a sterile plate, and dried for later use.
(§4) Following culturing of K. pneumoniae 1202 and K. pneumoniae 1202-45-5 in BHI broth for 6-8 hours, the bacteria were diluted to a concentration of 10^6 colony count using a turbidimeter.
(§5) For K. pneumoniae 1202, drug treatment concentrations were set as follows: Polymyxin E (0.25 μg/mL), SU3327 (10 μg/mL), SU3327 (10 μg/mL)+Polymyxin E (0.25 μg/mL); the bacteria in control group were treated with a solvent, 0.1% DMSO. For K. pneumoniae 1202-45-5, drug treatment concentrations were set as follows: Polymyxin E (1 μg/mL), SU3327 (20 μg/mL), SU3327 (20 μg/mL)+Polymyxin E (1 μg/mL). 100 μL of a bacterial solution was applied on an agar plate at 1 h, 3 h, 6 h, 12 h and 24 h post drug treatment, respectively, and cultured for at least 16 h for a colony count.

Another assay deals with K. pneumoniae 1202. Put plainly: In vitro bacterial growth (bactericidal) curve. Particulars: continuous treatment for 24 h, Polymyxin E 0.25 μg/mL, SU3327 10 μg/mL, alone or combined. It counts as cell-based, Klebsiella pneumoniae. As to the method: as §3, §4, §5
The test system of assay [9] is K. pneumoniae 1202-45-5. Put plainly: Thigh infection model of neutropenic BALB/c mice infected with drug resistant bacteria. The conditions noted are these: 10 mg/kg body weight each drug, intraperitoneal, 24 hour post infection; for bacteria loading in the thigh of the mice: twice 8 h apart, K. pneumoniae 1202-45-5. It counts as in vivo. As to the method:
In order to avoid the influence of mice's own immunity on the experiments, all mice were administered in advance with cyclophosphamide twice, four days and one day before infection, respectively, 100 mg/kg intraperitoneal injection each time, resulting in neutropenia and immune deficiency in the mice. 24 female BALB/c mice (weighing about 20 g) aged 6-8 weeks old were prepared. K. pneumoniae 1202-45-5 in logarithmic phase was re-suspended with a PBS buffer to prepare a suspension at the concentration of 1×10^7 CFU/mL; in the mice, the total amount of bacteria injected into the thigh of each mouse was 1×10^6 CFUs in the end. Then they were randomly divided into model control group (solvent treatment group), Polymyxin E treatment group (10 mg/kg body weight), SU3327 treatment group (10 mg/kg body weight), and combined treatment group of SU3327 (10 mg/kg body weight)+Polymyxin E (10 mg/kg body weight) (6 mice in each group). The treatments are detailed as follows:
Solvent control treatment group: 0.1 mL of the suspension of K. pneumoniae 1202-45-5 was intramuscularly injected into a mouse in the thigh on the right side of its abdominal cavity; one hour later, the mouse was intraperitoneally injected with 200 μL of a PBS buffer.
Polymyxin E treatment group: 0.1 mL of the suspension of K. pneumoniae 1202-45-5 was intramuscularly injected into a mouse in the thigh on the right side of its abdominal cavity; one hour later, the mouse was intraperitoneally injected with 200 μL of a solution of drug, Polymyxin E (1 mg/mL); the final dose was 10 mg/kg body weight;
SU3327 treatment group: 0.1 mL of the suspension of K. pneumoniae 1202-45-5 was intramuscularly injected into a mouse in the thigh on the right side of its abdominal cavity; one hour later, the mouse was intraperitoneally injected with 200 μL of a solution of drug, SU3327 (1 mg/mL); the final dose was 10 mg/kg body weight; […]

The test system of another assay is JNK. Particulars: substrate-competitive JNK inhibitor; cited from earlier work.
In the next assay the test system is JNK and JIP. The conditions noted are these: read-out: IC50 (protein interaction between JNK and JIP); cited from earlier work.
For another assay, the target named is p38α (Homo sapiens, UniProt Q16539). The conditions noted are these: cited from earlier work.
Sequence of p38α (Q16539 whole entry): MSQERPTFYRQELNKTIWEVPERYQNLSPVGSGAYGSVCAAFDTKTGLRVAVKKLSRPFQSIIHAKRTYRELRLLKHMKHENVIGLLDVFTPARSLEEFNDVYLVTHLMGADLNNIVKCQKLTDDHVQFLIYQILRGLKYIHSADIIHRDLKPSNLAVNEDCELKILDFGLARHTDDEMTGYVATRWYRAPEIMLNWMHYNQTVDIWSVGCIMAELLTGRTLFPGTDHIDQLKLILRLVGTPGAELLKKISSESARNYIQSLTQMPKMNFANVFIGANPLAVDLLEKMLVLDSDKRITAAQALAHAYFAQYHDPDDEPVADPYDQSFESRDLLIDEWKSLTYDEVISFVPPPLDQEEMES
For the next assay, the system named is Akt. Particulars: cited from earlier work.

The term MIC denotes the least concentration at which growth counts as inhibited. For orientation: IC50 means the concentration at which inhibition is half-maximal. In the case of `Nc1nnc(Sc2ncc([N+](=O)[O-])s2)s1` [SU3327], the “MIC after use in combination” value stood at 2.5 µg/mL in assay [1]; 2.5 µg/mL in [2]; 5 µg/mL in assay [3]; 2.5 µg/mL in assay [4]; 5 µg/mL in assay [5]; 2.5 µg/mL in the assay with Salmonella 1-5. In addition, the “MIC after use in combination” value was found to be 2.5 µg/mL in the assay with Shigella Y, 1.25 µg/mL in [6] and 2.5 µg/mL in [7]. In addition, the MIC in [1] was 20 µg/mL; in assay [2], 10 µg/mL; in assay [3] it was 10 µg/mL; in assay [4], 20 µg/mL; in assay [5] it was 20 µg/mL; in the assay on Salmonella 1-5 (drug alone) it was 20 µg/mL. Besides, the MIC (with Shigella Y (drug alone); in assay [6]; in assay [7]) was 5 µg/mL in each case. Besides, the bacterial colony counts turned out to be 6.65 Log 10 CFU/mL with K. pneumoniae 1202-45-5 [8] and 8.35 Log 10 CFU/mL in the assay with K. pneumoniae 1202. For the same compound, the “bacteria loading in the thigh of the mice” value in the assay on K. pneumoniae 1202-45-5 [9] is given as 6.55 Log 10 CFU/mL. Moreover, the IC50 in the assay on JNK is 700 nM; in the assay on JNK and JIP, 239 nM. In addition, the “activity for p38α kinase” value on p38α is “low activity”. In addition, the “activity for Akt kinase” value in the assay with Akt is given as “low activity”.
Regarding Polymyxin E, the “MIC after use in combination” value was determined as 0.5 µg/mL in assay [1]; 0.25 µg/mL in assay [2]; 0.0625 µg/mL in [3]; 0.0625 µg/mL in [4]; 0.25 µg/mL in [5]; 1 µg/mL in the assay on Salmonella 1-5. In addition, the “MIC after use in combination” value in the assay with Shigella Y stood at 0.032 µg/mL; in assay [6] it was 32 µg/mL; in [7] it was 64 µg/mL. The MIC in assay [1] was 8 µg/mL; in assay [2], 16 µg/mL; in [3], 0.125 µg/mL; in assay [4] it was 1 µg/mL; in [5] it was 16 µg/mL; in assay [6], “more than 128 μg/mL”. Besides, the MIC entry in assay [7] is given as “more than 128 μg/mL”. In addition, the bacterial colony counts with K. pneumoniae 1202-45-5 [8] is recorded as 9.3 Log 10 CFU/mL; with K. pneumoniae 1202 it was 8.9 Log 10 CFU/mL. The “bacteria loading in the thigh of the mice” value in the assay with K. pneumoniae 1202-45-5 [9] was 6.82 Log 10 CFU/mL. Moreover, in the assay on K. pneumoniae 1202-45-5 [9], the “bacteria loading in the thigh compared with solvent control group” value is “not significantly different”.
